The values that follow come from US10383880B2 (Reset Therapeutics, Inc., priority 2012, dated 2019).

This assay concerns Per2-dLuc U2OS reporter cells. Nature of the assay: Per2 assay for evaluating the potency of test compounds (high-throughput circadian assay). In kind it is cell-based. The settings on record: Homo sapiens, U2OS, stable U2OS reporter cells harboring Per2-dLuc; luminescence monitored over 4-5 days at 35° C. In a few lines: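 Compounds (0.5% DMSO final) were added right after serum-shock synchronization of Per2-dLuc U2OS reporter cells in minimal medium containing 1.0 mM beetle luciferin. Reporter luminescence was followed at 35 °C for 4–5 days to extract rhythm period, amplitude and phase, and EC50 values were obtained from these.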

Each structure is given as a SMILES string.

`CS(=O)(=O)N(CC(O)Cn1c2cc(F)ccc2c2ccc(F)cc21)C1CC1` (centres unmarked) [Compound 161, N-Cyclopropyl-N-(3-(2,7-difluoro-9H-carbazol-9-yl)-2-hydroxypropyl)methanesulfonamide] displayed an EC50 of 1140 nM. This lies in the single-digit micromolar range. Next, `CC(O)(CN(C1(C)CCC1)S(C)(=O)=O)Cn1c2ccc(F)cc2c2cc(F)ccc21` (centres unmarked) [Compound 187, N-(3-(3,6-Difluoro-9H-carbazol-9-yl)-2-hydroxy-2-methylpropyl)-N-(1-methylcyclobutyl)methanesulfonamide]: 2750 nM; `O=S1(=O)Cc2ccccc2N1CC(O)Cn1c2ccccc2c2ccccc21` (centres unmarked) [Compound 36, N-(3-(9H-Carbazol-9-yl)-2-hydroxypropyl)-1,3-dihydrobenzo[c]isothiazole 2,2-dioxide]: 539 nM. To `O=S(=O)(CCC(F)(F)F)N(Cc1ccco1)CC(O)Cn1c2ccccc2c2ccccc21` (centres unmarked) [Compound 6, N-(3-(9H-Carbazol-9-yl)-2-hydroxypropyl)-3,3,3-trifluoro-N-(furan-2-ylmethyl)propane-1-sulfonamide] belongs 964 nM; to `CC(O)(CN1CCCN(C2CCCC2)S1(=O)=O)Cn1c2ccc(F)cc2c2cc(F)ccc21` (centres unmarked) [Compound 221, 2-(3-(3,6-Difluoro-9H-carbazol-9-yl)-2-hydroxy-2-methylpropyl)-6-cyclopentyl-1,2,6-thiadiazinane-1,1-dioxide], 5520 nM. To `CCCN(CC(O)Cn1c2cc(F)ccc2c2ccc(F)cc21)S(C)(=O)=O` (centres unmarked) [Compound 157, N-(3-(2,7-Difluoro-9H-carbazol-9-yl)-2-hydroxypropyl)-N-propylmethanesulfonamide] belongs 895 nM. `CC(C)(C(O)CN1CCCS1(=O)=O)n1c2ccccc2c2ccccc21` (centres unmarked) [Compound 114, 2-(3-(9H-Carbazol-9-yl)-2-hydroxy-3-methylbutyl)-isothiazolidine-1,1-dioxide] gave an EC50 of 521 nM. Next, `O=S(=O)(C1CC1)N(Cc1ccco1)CC(O)Cn1c2ccccc2c2ccccc21` (centres unmarked) [Compound 16, N-(3-(9H-Carbazol-9-yl)-2-hydroxypropyl)-N-(furan-2-ylmethyl)cyclopropanesulfonamide]: 1670 nM; `CCN1CCN(CC(C)(O)Cn2c3ccc(F)cc3c3cc(F)ccc32)S1(=O)=O` (centres unmarked) [Compound 219]: 1580 nM. With `CC1(C)CC1N(CC(O)Cn1c2ccccc2c2ccccc21)S(C)(=O)=O` (centres unmarked) [Compound 132, N-(3-(9H-Carbazol-9-yl)-2-hydroxypropyl)-N-(2,2-dimethylcyclopropyl)methanesulfonamide], a half-maximal response (EC50) required 348 nM. To `Cn1ccc2ccc(N(CC(O)Cn3c4ccccc4c4ccccc43)S(C)(=O)=O)cc21` (centres unmarked) [Compound 66, N-(3-(9H-Carbazol-9-yl)-2-hydroxypropyl)-N-(1-methyl-1H-indol-6-yl)methanesulfonamide] belongs 9900 nM.

With `O=S1(=O)CCCCN1CC(O)Cn1c2ccc(F)cc2c2c(F)cccc21` (centres unmarked) [Compound 107, N-(3-(3,5-Diflouoro-9H-carbazol-9-yl)-2-hydroxypropyl)-1,2-thiazinane 1,1-dioxide], the EC50 came out at 240 nM.

The compound `O=S1(=O)CCCN1CC(O)Cn1c2ccc(F)cc2c2c(F)cccc21` (centres unmarked) [Compound 108, N-(3-(3,5-Difluoro-9H-carbazol-9-yl)-2-hydroxypropyl)-isothiazolidine-1,1-dioxide] had an EC50 of 388 nM.

As to `COC(=O)N1CCCC(N(CC(O)Cn2c3ccccc3c3ccccc32)S(C)(=O)=O)C1` (centres unmarked) [Compound 130, Methyl 3-(N-(3-(9H-carbazol-9-yl)-2-hydroxypropyl)methylsulfonamido)piperidine-1-carboxylate], a half-maximal response (EC50) required 636 nM. Next, `CCN1CCCN(CC(O)Cn2c3ccc(F)cc3c3cc(F)ccc32)S1(=O)=O` (centres unmarked) [Compound 226, 2-(3-(3,6-Difluoro-9H-carbazol-9-yl)-2-hydroxypropyl)-6-ethyl-1,2,6-thiadiazinane-1,1-dioxide]: 314 nM. Regarding `CS(=O)(=O)N(CC(O)Cn1c2ccccc2c2ccccc21)CC1CCCCO1` (centres unmarked) [Compound 53, N-(3-(9H-Carbazol-9-yl)-2-hydroxypropyl)-N-((tetrahydro-2H-pyran-2-yl)methyl)methanesulfonamide], the EC50 is 578 nM. To `CN1CCCN(CC(O)Cn2c3ccccc3c3ccccc32)S1(=O)=O` (centres unmarked) [Compound 124, 2-(3-(9H-Carbazol-9-yl)-2-hydroxypropyl)-6-methyl-1,2,6-thiadiazinane-1,1-dioxide] belongs 154 nM. As for `COC1CN(CC(O)Cn2c3ccc(F)cc3c3cc(F)ccc32)S(=O)(=O)C1` (centres unmarked) [Compound 181, 2-(3-(3,6-Difluoro-9H-carbazol-9-yl)-2-hydroxypropyl)-4-methoxyisothiazolidine-1,1-dioxide], it took 174 nM to reach a half-maximal effect (EC50). `CC1CC(N(CC(O)Cn2c3ccccc3c3ccccc32)S(C)(=O)=O)C1` (centres unmarked) [Compound 131, N-(3-(9H-Carbazol-9-yl)-2-hydroxypropyl)-N-(3-methylcyclobutyl)methanesulfonamide] had a 50% effective concentration (EC50) of 79 nM. Next, `O=S1(=O)c2ccccc2CN1CC(O)Cn1c2ccccc2c2ccccc21` (centres unmarked) [Compound 34, N-(3-(9H-Carbazol-9-yl)-2-hydroxypropyl)-2,3-dihydrobenzo[d]isothiazole 1,1-dioxide]: 31 nM; `CS(=O)(=O)N(CC(O)Cn1c2ccccc2c2ccccc21)c1ccc2ccccc2c1` (centres unmarked) [Compound 48, N-(3-(9H-Carbazol-9-yl)-2-hydroxypropyl)-N-(naphthalen-2-yl)methanesulfonamide]: 1500 nM. Next, `CS(=O)(=O)N(CC(O)Cn1c2ccc(F)cc2c2cc(F)ccc21)c1ccccc1` (centres unmarked) [Compound 199, N-(3-(3,6-Difluoro-9H-carbazol-9-yl)-2-hydroxypropyl)-N-phenylmethanesulfonamide]: 544 nM; `CC(C)N1CCN(CC(O)Cn2c3ccc(F)cc3c3cc(F)ccc32)S1(=O)=O` (centres unmarked) [Compound 224]: 59 nM. Next, `CCOc1ccc(N(CC(O)Cn2c3ccc(F)cc3c3cc(F)ccc32)S(C)(=O)=O)cc1` (centres unmarked) [Compound 202, N-(3-(3,6-Difluoro-9H-carbazol-9-yl)-2-hydroxypropyl)-N-(4-ethoxyphenyl)methanesulfonamide]: 2100 nM; `CS(=O)(=O)N(CC(O)Cn1c2ccccc2c2ccccc21)CC1CCCC1` (centres unmarked) [Compound 50, N-(3-(9H-Carbazol-9-yl)-2-hydroxypropyl)-N-(cyclopentylmethyl)methanesulfonamide]: 148 nM; `CCCN(CC(O)Cn1c2ccc(F)cc2c2cc(F)ccc21)S(C)(=O)=O` (centres unmarked) [Compound 153, N-(3-(3,6-Difluoro-9H-carbazol-9-yl)-2-hydroxypropyl)-N-propylmethanesulfonamide]: 396 nM. In turn, `O=S1(=O)CCCCN1CC(O)Cn1c2cc(F)ccc2c2c(F)cccc21` (centres unmarked) [Compound 96, N-(3-(2,5-Difluoro-9H-carbazol-9-yl)-2-hydroxypropyl)-1,2-thiazinane 1,1-dioxide] gave an EC50 of 456 nM. Next, `CC(O)(CN(C1(C)CC1)S(C)(=O)=O)Cn1c2ccc(F)cc2c2cc(F)ccc21` (centres unmarked) [Compound 189, N-(3-(3,6-Difluoro-9H-carbazol-9-yl)-2-hydroxy-2-methylpropyl)-N-(1-methylcyclopropyl)methanesulfonamide]: 1290 nM; `CS(=O)(=O)N(CC(O)Cn1c2ccccc2c2ccccc21)c1ccc(C#N)cc1` (centres unmarked) [Compound 80, N-(3-(9H-Carbazol-9-yl)-2-hydroxypropyl)-N-(4-cyanophenyl)methanesulfonamide]: 4220 nM. Next, `COCCN(CC(O)Cn1c2cc(F)ccc2c2c(F)cccc21)S(C)(=O)=O` (centres unmarked) [Compound 99, N-(3-(2,5-Difluoro-9H-carbazol-9-yl)-2-hydroxypropyl)-N-(2-methoxyethyl)methanesulfonamide]: 3550 nM; `CS(=O)(=O)N(CC(O)Cn1c2ccc(F)cc2c2cc(F)ccc21)C1CC1` (centres unmarked) [Compound 118, N-Cyclopropyl-N-(3-(3,6-difluoro-9H-carbazol-9-yl)-2-hydroxypropyl)methanesulfonamide]: 81 nM. To `CS(=O)(=O)CCN(CC(O)Cn1c2ccccc2c2ccccc21)S(C)(=O)=O` (centres unmarked) [Compound 55, N-(3-(9H-Carbazol-9-yl)-2-hydroxypropyl)-N-(2-(methylsulfonyl)ethyl)methanesulfonamide] belongs 2310 nM; to `CC1CCCC1N(CC(C)(O)Cn1c2ccc(F)cc2c2cc(F)ccc21)S(C)(=O)=O` (centres unmarked) [Compound 192, N-(3-(3,6-Difluoro-9H-carbazol-9-yl)-2-hydroxy-2-methylpropyl)-N-(2-methylcyclopentyl)methanesulfonamide], 686 nM. Compound `CC(O)(CN1CCCS1(=O)=O)Cn1c2ccc(F)cc2c2cc(F)ccc21` (centres unmarked) [Compound 115, 2-(3-(3,6-Difluoro-9H-carbazol-9-yl)-2-hydroxy-2-methylpropyl)-isothiazolidine-1,1-dioxide] came in with an EC50 of 232 nM. Against the preceding compound, the EC50 is about 3-fold lower. Next, `CS(=O)(=O)N(CC(O)Cn1c2ccccc2c2ccccc21)CC1CCCCC1` (centres unmarked) [Compound 52, N-(3-(9H-Carbazol-9-yl)-2-hydroxypropyl)-N-(cyclohexylmethyl)methanesulfonamide]: 306 nM; `CS(=O)(=O)N(CC(O)Cn1c2ccccc2c2ccccc21)C1CC1` (centres unmarked) [Compound 56, N-(3-(9H-Carbazol-9-yl)-2-hydroxypropyl)-N-cyclopropylmethanesulfonamide]: 128 nM. To `CC(C)c1ccc(N(CC(O)Cn2c3ccc(F)cc3c3cc(F)ccc32)S(C)(=O)=O)cc1` (centres unmarked) [Compound 205, N-(3-(3,6-Difluoro-9H-carbazol-9-yl)-2-hydroxypropyl)-N-(4-isopropylphenyl)methanesulfonamide] belongs 1210 nM. Next, `CS(=O)(=O)N(CC(O)Cn1c2ccccc2c2ccccc21)C1CC(F)(F)C1` (centres unmarked) [Compound 133, N-(3-(9H-Carbazol-9-yl)-2-hydroxypropyl)-N-(3,3-difluorocyclobutyl)methanesulfonamide]: 1530 nM.

In general, EC50 refers to the concentration giving half of the maximal effect. Low readings indicate a more potent agent, high ones a less potent agent.
